# Patent US20070196883A1, “ENZYME” (UNIVERSITY OF DUNDEE, priority 1999, published 2007)
# Entries after “also recorded” stand apart in the source; their conditions may differ.
# Assays:
# [1] = target: T1, GST-PIF/PDK1 complex (Homo sapiens, UniProt O15530); assay: Phosphorylation of GST-PKBα at Ser473 by GST-PIF/PDK1 (P-473 immunoblot); type: biochemical; details: lipid 10 μM in PtdCho/PtdSer vesicles, MgATP, 60 min 30° C.
# T1 construct: endogenous in cells; host or cells: 293 cells transfected with pEBG2T GST-PIF; endogenous PDK1 co-purified on glutathione-Sepharose
# Method: FIG. 5. The ability of GST-PIF to phosphorylate PKBα at Ser473 is dependent upon the presence of PDK1. GST-PIF purified from 293 cells, FIG. 2C (20 μg in 50 μl) was incubated with Protein G-Sepharose (10 μl) conjugated with either no antibody (control), MSK1 antibody A [40] (5 μg, non specific antibody), a PDK1 antibody raised against the whole protein (5 μg) or a PDK1 peptide antibody raised against the 16 C-terminal amino acid residues of PDK1 (5 μg, peptide antibody) in the presence or absence of the PDK1 C-terminal peptide immunogen (0.2 mM) to which this antibody was raised. After incubation on a shaking platform for 60 min at 4° C., the suspension was centrifuged and GST-PIF in the supernatant (2.0 μg) was incubated with GST-PKBα and MgATP for 60 min at 30° C. in the presence or absence of phospholipid vesicles containing 100 μM PtdCho, 100 μM PtdSer, and 10 μM sn-1-stearoyl-2-arachidonoyl-D-PtdIns(3,4,5)P3 (1,2-SAD-PtdIns(3,4,5)P3), or sn-1,2 di-palmitoyl-D-PtdIns(3,4,5)P3 (C16-PtdIns(3,4,5)P3) or sn-1,2 di-palmitoyl-D-PtdIns(3,4)P2 (C16-PtdIns(3,4)P2). The reactions were terminated by making the solutions 1% in SDS, and the samples were subjected to SDS/polyacylamide gel electrophoresis and immunoblotted using the P-Ser473 antibody. Identical results were obtained in 2 separate experiments (B) The wild type and mutant GST-PIF proteins (2.0 μg) used in FIG. 3 were incubated with GST-PKBα and MgATP for 60 min at 30° C. in the presence or absence of lipid vesicles containing 10 μM sn-1-stearoyl-2-arachidonoyl-D-PtdIns(3,4,5)P3 and the degree of phosphorylation of PKBα at Ser473 was established by immunoblotting. Similar results were obtained in 4 separate experiments using 2 different preparations of the wild type and mutant GST-PIF proteins.
# FIG. 7. Specificity of phosphoinositide-dependent PIF/PDK1-induced phosphorylation of Thr308 and Ser473 of PKBα. GST-PKBα was incubated for 60 min at 30° C. with GST-PIF purified from 293 cells (which is associated with endogenous PDK1 see FIG. 3) (1.0 μg), MgATP and phospholipid vesicles containing 100 μM PtdCho, 100 μM PtdSer, and various PtdIns lipids (numbered 1-11, see below) all at a final concentration of 10 μM in the assay. In panel A the reactions were terminated by the addition of Triton X100 and the increase in specific activity of GST-S473D-PKBα (U/mg), determined, relative to a control incubation in which GST-PIF was omitted (±SEM for 6 determinations, two independent experiments). The basal activity of GST-S473D-PKBα was 3.5 U/mg. In Panel B the reactions were terminated by making the solutions 1% in SDS, the samples were subjected to SDS/polyacylamide gel electrophoresis and the extent of PKBα phosphorylation was established using the phospho-specific antibody that recognises PKBα phosphorylated at Ser 473. In B the results of 2 separate experiments with different preparations of lipid are shown. Lipid 1, Buffer control; Lipid 2, PtdIns 3P; Lipid 3, n-1,2-dipalmitoyl PtdIns(3,4)P2; Lipid 4, PtdIns(3,5)P2; Lipid 5, PtdIns(4,5)P2; Lipid 6, sn-1,2-dipalmitoyl D-PtdIns(3,4,5)P3; Lipid 7, rac-1,2-dilinoleoyl phosphatidyl D/L-myo-inositol 3,4,5trisphosphate; Lipid 8, sn-1-stearoyl, 2-arachidonoyl D-PtdIns(3,4,5,)P3; Lipid 9, sn-1-stearoyl, 2-arachidonoyl L-PtdIns(3,4,5,)P3; Lipid 10, sn-2-stearoyl, 3-arachidonoyl D-PtdIns(3,4,5,)P3; Lipid 11, sn-2-ste aroyl, 3-arachidonoyl L-PtdIns(3,4,5,)P3.
# Phosphorylation of GST-PKBα by incubation with GST-PIF. In experiments in which the phosphorylation of PKBα was determined using the phospho-specific Ser473 PKBα antibodies, the incubations were identical to the Stage 1 described above except that the reactions were terminated by the addition of 1% (by mass) SDS and immunoblotting is carried out as described below. In experiments in which the sites of phosphorylation on PKBα are determined the incubations were identical to the Stage 1 described above except [γ^32P] ATP (1000-2000 cpm/pmol) was used instead of unlabelled ATP. […]
# [2] = tested on: PDK1; assay: Activation of GST-ΔPH-PKBα by PDK1 with or without PIF and phosphoinositide; type: biochemical; details: for rate at which GST-PIF/PDK1 complex activates GST-ΔPH-PKBα, presence versus absence of lipid: GST-PIF/PDK1 complex purified from 293 cells
# Method: FIG. 8. Maximal activation of PKB by PDK1/PIF requires PtdIns(3,4,5)P3 to interact with both PKB and PDK1. […] The basal activity of GST-ΔPH-PKBα was 3.0 U/mg.
# Measurement of PKBα activation after incubation with GST-PIF. This assay was carried out in 2 stages, as described previously; briefly, in the first, GST-PKBα was incubated with GST-PIF (or other indicated PDK1 proteins in the presence or absence of peptides) in the presence of MgATP and phospholipid vesicles.
# In Stage 1, an 15 μl reaction mixture was set up containing 66.5 mM Tris/HCl pH 7.5, 0.13 mM EGTA, 0.13% (by vol) 2-mercaptoethanol, 3.3 μM PKI, 1.3 μM microcystin-LR, 13.3 mM Mg(Ac)2, 133 μM unlabelled ATP, 0.4 μM GST-PKBA, 133 μM PtdSer, 133 μM PtdCho in the presence or absence of 13.3 μM PtdIns(3,4,5)P3. The assay was initiated by the addition of 5 μl of 0.2 mg/ml GST-PIF (or other indicated proteins or peptides), after incubation for 30 min at 30° C., stage 2 of the assay was initiated by the addition of 30 μl of a mixture made up of Buffer B containing 2.5 μM PKI, 1 μM microcystin-LR, 10 mM Mg(Ac)2, 100 μM [γ^32P]ATP (200-400 cpm/pmol), 100 μM of the peptide RPRTAAF (SEQ ID NO:13) and 1.25% (by vol) Triton X-100. After 10 min at 30° C., the reactions were terminated by spotting the reaction mixture on to P81 phosphocellulose paper. The papers were washed in 75 mM phosphoric acid and analysed as described previously. A control reaction in which GST-PKBα was omitted was taken as the blank and was always less than 5% of the activity measured in the presence of GST-PKBα. The basal GST-PKBα activity is the activity measured in the absence of PDK1. 1 Unit of GST-PKBα activity was that amount of enzyme required to catalyse the phosphorylation of 1 nmol of the peptide RPRTAAF (SEQ ID NO:13) in 1 min. The assays were linear with time up to a final concentration of 3 U/ml of PDK1 activity in the assay.
# T1 sequence (O15530 whole entry): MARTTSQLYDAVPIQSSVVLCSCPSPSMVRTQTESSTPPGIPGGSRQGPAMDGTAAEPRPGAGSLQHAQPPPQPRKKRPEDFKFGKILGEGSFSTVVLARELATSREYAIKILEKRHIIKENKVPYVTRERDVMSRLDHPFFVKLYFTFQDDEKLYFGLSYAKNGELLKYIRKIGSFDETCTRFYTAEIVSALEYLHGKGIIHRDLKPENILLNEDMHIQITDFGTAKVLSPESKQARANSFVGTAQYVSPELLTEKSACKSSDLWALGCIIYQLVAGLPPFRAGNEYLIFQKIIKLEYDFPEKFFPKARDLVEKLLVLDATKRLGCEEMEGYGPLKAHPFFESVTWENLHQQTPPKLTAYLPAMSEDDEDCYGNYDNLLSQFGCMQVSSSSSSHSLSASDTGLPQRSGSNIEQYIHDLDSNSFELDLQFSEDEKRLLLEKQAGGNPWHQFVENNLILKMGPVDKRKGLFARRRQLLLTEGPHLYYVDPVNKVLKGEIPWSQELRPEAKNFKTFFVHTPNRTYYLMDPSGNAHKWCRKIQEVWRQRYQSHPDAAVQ
# T1 sequence (Q16513 908-984 partner): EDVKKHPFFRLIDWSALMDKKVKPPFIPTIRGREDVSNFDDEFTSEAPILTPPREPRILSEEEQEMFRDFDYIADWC
Compound,phosphorylation of GST-PKBα at Ser473 [1],"rate at which GST-PIF/PDK1 complex activates GST-ΔPH-PKBα, presence versus absence of lipid [2]",further results
"CCCCC/C=C\C/C=C\CCCCCCCC(=O)OCC(COP(=O)(O)OC1C(O)C(OP(=O)(O)O)C(OP(=O)(O)O)C(OP(=O)(O)O)C1O)OC(=O)CCCCCCC/C=C\C/C=C\CCCCC (racemic) [Lipid 7, rac-1,2-dilinoleoyl phosphatidyl D/L-myo-inositol 3,4,5-trisphosphate]",may also be effective,–,–
"CCCCCCCCCCCCCCCC(=O)OCC(COP(=O)(O)OC1C(O)C(O)C(OP(=O)(O)O)C(OP(=O)(O)O)C1O)OC(=O)CCCCCCCCCCCCCCC (stereo not drawn) [Lipid 3, sn-1,2-dipalmitoyl PtdIns(3,4)P2]",may also be effective,~4 fold,"phosphorylation of GST-PKBα at Ser473 ([1]; listed as PtdIns(3,4)P2): strongly phosphorylated"
"CCCCCCCCCCCCCCCC(=O)OC[C@H](COP(=O)(O)OC1[C@H](O)[C@H](OP(=O)(O)O)C(OP(=O)(O)O)[C@H](OP(=O)(O)O)[C@H]1O)OC(=O)CCCCCCCCCCCCCCC (stereo partly drawn) [Lipid 6, sn-1,2-dipalmitoyl D-PtdIns(3,4,5)P3]",may also be effective,–,–
"CCCCC/C=C\C/C=C\C/C=C\C/C=C\CCCC(=O)O[C@H](COC(=O)CCCCCCCCCCCCCCCCC)COP(=O)(O)O[C@H]1[C@@H](O)[C@H](OP(=O)(O)O)[C@@H](OP(=O)(O)O)[C@H](OP(=O)(O)O)[C@H]1O [Lipid 8, sn-1-stearoyl, 2-arachidonoyl D-PtdIns(3,4,5,)P3]",highly effective; also recorded: may be capable of enhancing,~4 fold,"enhancement of the rate at which PDK1 complexed to PIF activates GST-ΔPH-PKBα ([2]; His-PDK1/GST-PIF*, presence versus absence of lipid): 3 to 4 fold; rate at which His-PDK1 activates GST-ΔPH-PKBα, presence versus absence of lipid ([2]; His-PDK1 alone, no PIF): the same; phosphorylation of GST-PKBα at Ser473 ([1]; listed as PtdIns(3,4,5)P3): strongly phosphorylated"
"CCCCC/C=C\C/C=C\C/C=C\C/C=C\CCCC(=O)O[C@H](COC(=O)CCCCCCCCCCCCCCCCC)COP(=O)(O)OC1[C@@H](O)[C@H](OP(=O)(O)O)C(OP(=O)(O)O)[C@H](OP(=O)(O)O)[C@H]1O (stereo partly drawn) [Lipid 9, sn-1-stearoyl, 2-arachidonoyl L-PtdIns(3,4,5,)P3]",failed to induce a significant phosphorylation; also recorded: may not induce,–,–
"CCCCC/C=C\C/C=C\C/C=C\C/C=C\CCCC(=O)OC[C@@H](COP(=O)(O)O[C@H]1[C@@H](O)[C@H](OP(=O)(O)O)[C@@H](OP(=O)(O)O)[C@H](OP(=O)(O)O)[C@H]1O)OC(=O)CCCCCCCCCCCCCCCCC [Lipid 10, sn-2-stearoyl, 3-arachidonoyl D-PtdIns(3,4,5,)P3]",highly effective; also recorded: may be capable of enhancing,–,–
"PtdIns(3,5)P2 [Lipid 4]",did not induce,–,–
"PtdIns(4,5)P2 [Lipid 5]",did not induce,do not increase,–
PtdIns-3P [Lipid 2],did not induce,do not increase,–
"sn-2-ste aroyl, 3-arachidonoyl L-PtdIns(3,4,5,)P3 [Lipid 11]",failed to induce a significant phosphorylation; also recorded: may not induce,–,–
